Assay results reported in patent US10899753B2, “Inhibiting agents for Bruton's tyrosine kinase” (BIOGEN MA INC., priority 2018, dated 2021).

What was measured:
[1] = target: T1, BTK (Homo sapiens (Human), UniProt Q06187); assay: In Vitro PD Assay in Human Whole Blood (pBTK assay); format: cell-based; settings: human heparinized whole blood, 37° C. for 30 min, total BTK capture and phosphotyrosine detection (ECL)
Method: In Vitro PD Assay in Human Whole Blood
Human heparinized venous blood was purchased from Bioreclamation, Inc. or SeraCare Life Sciences and shipped overnight. Whole blood was aliquoted into 96-well plate and “spiked” with serial dilutions of test compound in DMSO or with DMSO without drug. The final concentration of DMSO in all wells was 0.1%. The plate was incubated at 37° C. for 30 min. Lysis buffer containing protease and phosphatase inhibitors was added to the drug-containing samples and one of the DMSO-only samples (+PPi, high control), while lysis buffer containing protease inhibitors was added to the other DMSO-only samples (−PPi, low control). All of the lysed whole blood samples were subjected to the total BTK capture and phosphotyrosine detection method described in US20160311802, incorporated herein by reference.

[2] = target: T1, BTK; assay: In Vitro BTK Kinase Assay: BTK-POLYGAT-LS ASSAY; format: biochemical; settings: fluorescein-labeled polyGAT peptide 100 nM, BTK enzyme 0.25 nM, 30 minutes, TRF
Method: In Vitro BTK Kinase Assay: BTK-POLYGAT-LS ASSAY
The purpose of the BTK in vitro assay is to determine compound potency against BTK through the measurement of IC50. […] For a typical assay, a […] aliquot of a ATP/peptide master mix (final concentration; ATP […], polyGAT 100 nM) in kinase buffer (10 mM Tris-HCl pH 7.5, 10 mM MgCl2, 200 μM Na3PO4, 5 mM DTT, 0.01% Triton X-100, and 0.2 mg/ml casein) is added to each well. […] The assay is incubated for 30 minutes before being stopped with 28 μL of a 50 mM EDTA solution. […] The plate is covered and incubated for 45 minutes at room temperature. Time resolved fluorescence (TRF) on Molecular Devices M5 (332 nm excitation; 488 nm emission; 518 nm fluorescein emission) is measured.

T1 sequence (Q06187 whole entry): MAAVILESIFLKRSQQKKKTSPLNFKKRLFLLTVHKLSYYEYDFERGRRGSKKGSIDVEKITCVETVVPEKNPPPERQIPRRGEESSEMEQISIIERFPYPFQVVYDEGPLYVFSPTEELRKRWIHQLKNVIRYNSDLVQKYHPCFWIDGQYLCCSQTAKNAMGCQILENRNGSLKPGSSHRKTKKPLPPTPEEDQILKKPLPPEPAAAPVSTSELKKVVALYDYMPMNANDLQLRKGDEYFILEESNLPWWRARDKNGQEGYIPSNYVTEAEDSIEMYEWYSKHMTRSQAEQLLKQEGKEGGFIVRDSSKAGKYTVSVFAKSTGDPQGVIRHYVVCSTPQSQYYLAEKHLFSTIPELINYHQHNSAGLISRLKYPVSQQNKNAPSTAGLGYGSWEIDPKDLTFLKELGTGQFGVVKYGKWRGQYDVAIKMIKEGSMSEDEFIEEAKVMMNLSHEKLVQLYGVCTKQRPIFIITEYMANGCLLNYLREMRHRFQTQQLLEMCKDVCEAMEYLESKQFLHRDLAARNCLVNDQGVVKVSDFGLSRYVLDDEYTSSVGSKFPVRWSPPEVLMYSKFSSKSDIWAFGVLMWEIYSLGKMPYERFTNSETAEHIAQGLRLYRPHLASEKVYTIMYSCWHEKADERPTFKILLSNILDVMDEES

`Cc1cc(-c2ncnc(Nc3cnn(C)c3)n2)ccc1CNC(=O)c1nc(C2(CF)CC2)no1` [Compound 48, 3-(1-(fluoromethyl)cyclopropyl)-N-(2-methyl-4-(4-((1-methyl-1H-pyrazol-4-yl)amino)-1,3,5-triazin-2-yl)benzyl)-1,2,4-oxadiazole-5-carboxamide] was tested, and the IC50 [1] was 100 to 500 nM and the IC50 [2] was under 1 nM.
In the case of `Cc1cc(-c2ncnc(Nc3cnn(C)c3)n2)ccc1CNC(=O)c1noc(C2(CF)CC2)n1` [Compound 49, 5-(1-(fluoromethyl)cyclopropyl)-N-(2-methyl-4-(4-((1-methyl-1H-pyrazol-4-yl)amino)-1,3,5-triazin-2-yl)benzyl)-1,2,4-oxadiazole-3-carboxamide], the IC50 [1] is reported as 100 to 500 nM and the IC50 [2] is reported as under 1 nM.
For `Cc1c(CNC(=O)c2noc(C3(CF)CC3)n2)ccc(-c2ncnc(Nc3cnn(C)c3)n2)c1F` [Compound 50, N-(3-fluoro-2-methyl-4-(4-((1-methyl-1H-pyrazol-4-yl)amino)-1,3,5-triazin-2-yl)benzyl)-5-(1-(fluoromethyl)cyclopropyl)-1,2,4-oxadiazole-3-carboxamide], the IC50 [1] was under 100 nM and the IC50 [2] was under 1 nM.
For `Cc1cc(-c2ncnc(Nc3cnn(C)c3)n2)c(F)cc1CNC(=O)c1noc(C2(CF)CC2)n1` [Compound 51, N-(5-fluoro-2-methyl-4-(4-((1-methyl-1H-pyrazol-4-yl)amino)-1,3,5-triazin-2-yl)benzyl)-5-(1-(fluoromethyl)cyclopropyl)-1,2,4-oxadiazole-3-carboxamide], the IC50 [1] was 100 to 500 nM and the IC50 [2] was under 1 nM.
For `Cc1c(CNC(=O)c2noc(C3(C(F)(F)F)CC3)n2)ccc(-c2ncnc(Nc3ccn(C)n3)n2)c1F` [Compound 52, N-(3-fluoro-2-methyl-4-(4-((1-methyl-1H-pyrazol-3-yl)amino)-1,3,5-triazin-2-yl)benzyl)-5-(1-(trifluoromethyl)cyclopropyl)-1,2,4-oxadiazole-3-carboxamide], the IC50 [1] was 500 to 10000 nM and the IC50 [2] was 1 to 10 nM.
With `Cn1ccc(Nc2ncnc(-c3ccc4c(c3)CCCC[C@H]4NC(=O)c3noc(C(C)(C)CF)n3)n2)n1` [Compound 53, (R)-5-(1-fluoro-2-methylpropan-2-yl)-N-(2-(4-((1-methyl-1H-pyrazol-3-yl)amino)-1,3,5-triazin-2-yl)-6,7,8,9-tetrahydro-5H-benzo[7]annulen-5-yl)-1,2,4-oxadiazole-3-carboxamide] the IC50 [1] was 100 to 500 nM and the IC50 [2] was under 1 nM.
Work on `Cn1ccc(Nc2ncnc(-c3ccc(CNC(=O)c4noc(C(C)(C)CF)n4)c(C4CC4)c3)n2)n1` [Compound 54, N-(2-cyclopropyl-4-(4-((1-methyl-1H-pyrazol-3-yl)amino)-1,3,5-triazin-2-yl)benzyl)-5-(1-fluoro-2-methylpropan-2-yl)-1,2,4-oxadiazole-3-carboxamide] yielded an IC50 [1] of 100 to 500 nM and an IC50 [2] of under 1 nM.
`Cn1ccc(Nc2ncnc(-c3ccc(CNC(=O)c4nc(C(C)(C)C)no4)c(C4CC4)c3F)n2)n1` [Compound 55, 3-(tert-butyl)-N-(2-cyclopropyl-3-fluoro-4-(4-((1-methyl-1H-pyrazol-3-yl)amino)-1,3,5-triazin-2-yl)benzyl)-1,2,4-oxadiazole-5-carboxamide] was tested, and the IC50 [1] was 500 to 10000 nM and the IC50 [2] was under 1 nM.
Compound `Cc1cc(-c2ncnc(Nc3cnn(C)c3)n2)c(F)cc1CNC(=O)c1noc(C(C)(C)C)n1` [Compound 56, 5-(tert-butyl)-N-(5-fluoro-2-methyl-4-(4-((1-methyl-1H-pyrazol-4-yl)amino)-1,3,5-triazin-2-yl)benzyl)-1,2,4-oxadiazole-3-carboxamide] has an IC50 [1] of 100 to 500 nM and an IC50 [2] of under 1 nM.
`Cc1cc(-c2ncnc(Nc3cnn(C)c3)n2)c(F)cc1CNC(=O)c1nc(C(C)(C)C)no1` [Compound 57, 3-(tert-butyl)-N-(5-fluoro-2-methyl-4-(4-((1-methyl-1H-pyrazol-4-yl)amino)-1,3,5-triazin-2-yl)benzyl)-1,2,4-oxadiazole-5-carboxamide] gave an IC50 [1] of 100 to 500 nM and an IC50 [2] of under 1 nM.
`Cc1cc(-c2ncnc(Nc3cnn(C)c3)n2)c(F)cc1CNC(=O)c1nnn(C(C)(C)C)n1` [Compound 58, 2-(tert-butyl)-N-(5-fluoro-2-methyl-4-(4-((1-methyl-1H-pyrazol-4-yl)amino)-1,3,5-triazin-2-yl)benzyl)-2H-tetrazole-5-carboxamide] showed an IC50 [1] of 100 to 500 nM and an IC50 [2] of under 1 nM.
In the case of `Cc1cc(-c2ncnc(Nc3cnn(C)c3)n2)c(F)cc1CNC(=O)c1noc(C2(C)CC2)n1` [Compound 59, N-(5-fluoro-2-methyl-4-(4-((1-methyl-1H-pyrazol-4-yl)amino)-1,3,5-triazin-2-yl)benzyl)-5-(1-methylcyclopropyl)-1,2,4-oxadiazole-3-carboxamide], the IC50 [1] is reported as 100 to 500 nM and the IC50 [2] is reported as under 1 nM.
Work on `Cc1cc(-c2ncnc(Nc3cnn(C)c3)n2)c(F)cc1CNC(=O)c1nc(C2(CF)CC2)no1` [Compound 60, N-(5-fluoro-2-methyl-4-(4-((1-methyl-1H-pyrazol-4-yl)amino)-1,3,5-triazin-2-yl)benzyl)-3-(1-(fluoromethyl)cyclopropyl)-1,2,4-oxadiazole-5-carboxamide] yielded an IC50 [1] of 100 to 500 nM and an IC50 [2] of under 1 nM.
In the case of `Cc1cc(-c2ncnc(Nc3cnn(C)c3)n2)c(F)cc1CNC(=O)c1cnn(C(C)(C)C)c1` [Compound 61, 1-(tert-butyl)-N-(5-fluoro-2-methyl-4-(4-((1-methyl-1H-pyrazol-4-yl)amino)-1,3,5-triazin-2-yl)benzyl)-1H-pyrazole-4-carboxamide], the IC50 [1] is reported as 100 to 500 nM and the IC50 [2] is reported as under 1 nM.
Work on `Cc1cc(-c2ncnc(Nc3cnn(C)c3)n2)c(F)cc1CNC(=O)c1cn(C(C)(C)C)nn1` [Compound 62, 1-(tert-butyl)-N-(5-fluoro-2-methyl-4-(4-((1-methyl-1H-pyrazol-4-yl)amino)-1,3,5-triazin-2-yl)benzyl)-1H-1,2,3-triazole-4-carboxamide] yielded an IC50 [1] of 500 to 10000 nM and an IC50 [2] of 1 to 10 nM.
For `Cc1cc(-c2ncnc(Nc3cnn(C)c3)n2)c(F)cc1CNC(=O)c1cc(C(C)(C)C)no1` [Compound 63, 3-(tert-butyl)-N-(5-fluoro-2-methyl-4-(4-((1-methyl-1H-pyrazol-4-yl)amino)-1,3,5-triazin-2-yl)benzyl)isoxazole-5-carboxamide], the IC50 [1] was 500 to 10000 nM and the IC50 [2] was under 1 nM.
With `Cc1cc(-c2ncnc(Nc3cnn(C)c3)n2)c(F)cc1CNC(=O)c1cc(C(C)(C)C)on1` [Compound 64, 5-(tert-butyl)-N-(5-fluoro-2-methyl-4-(4-((1-methyl-1H-pyrazol-4-yl)amino)-1,3,5-triazin-2-yl)benzyl)isoxazole-3-carboxamide] the IC50 [1] was 500 to 10000 nM and the IC50 [2] was under 1 nM.
`Cc1cc(-c2ncnc(Nc3cnn(C)c3)n2)c(F)cc1CNC(=O)c1coc(C(C)(C)C)n1` [Compound 65, 2-(tert-butyl)-N-(5-fluoro-2-methyl-4-(4-((1-methyl-1H-pyrazol-4-yl)amino)-1,3,5-triazin-2-yl)benzyl)oxazole-4-carboxamide] was tested, and the IC50 [1] was 500 to 10000 nM and the IC50 [2] was under 1 nM.
Work on `Cn1ccc(Nc2ncnc(-c3ccc(CNC(=O)c4nc(C(C)(C)C)no4)c(C(F)F)c3F)n2)n1` [Compound 66, 3-(tert-butyl)-N-(2-(difluoromethyl)-3-fluoro-4-(4-((1-methyl-1H-pyrazol-3-yl)amino)-1,3,5-triazin-2-yl)benzyl)-1,2,4-oxadiazole-5-carboxamide] yielded an IC50 [1] of 500 to 10000 nM and an IC50 [2] of 1 to 10 nM.
